Several values for one entry are separate records, joined by “and”; a condition that tells them apart may be missing. Identical values can stand only once. Entries after “also recorded” stand apart in the source; their conditions may differ. Counter-ions that a name gives are not always drawn. Like-named read-outs stand apart in the source and are kept apart here.
Columns and labels:
[1] = tested on: SARS-CoV-2; experiment: SARS-CoV-2 viral RNA copy determination in A549-hACE2 cells (RT-qPCR on supernatant); type: cell-based; conditions: for reduction of SARS-CoV-2 RNA in the supernatant: A549-hACE2, RT-qPCR at 48 hpi; for EC50: read-out: EC50, viral RNA reduction in supernatant
[2] = tested on: SARS-CoV-2; experiment: Immunofluorescence (HCI, spike stain) antiviral assay, SARS-CoV-2 in A549-hACE2; type: cell-based; conditions: read-out: EC50 against SARS-CoV-2 in A549-hACE2
[3] = tested on: SARS-CoV-2; experiment: Immunofluorescence (HCI, dsRNA stain) antiviral assay, SARS-CoV-2 in HeLa-hACE2; type: cell-based; conditions: read-out: EC50 against SARS-CoV-2 in HeLa-hACE2
[4] = tested on: SARS-CoV-1; experiment: microbe, parasite or virus in culture; type: cell-based; conditions: 24 h, read-out: EC50 against SARS-CoV-1 in A549-hACE2
[5] = tested on: HCoV-229E; experiment: microbe, parasite or virus in culture; type: cell-based, human coronavirus 229E; conditions: HCI (dsRNA stain), 24 h at 35 °C, read-out: EC50 against HCoV-229E in HeLa-hACE2
[6] = tested on: SARS-CoV-2; experiment: Antiviral assessment in Caco-2 cells by visual CPE scoring; type: cell-based; conditions: read-out: EC50 against SARS-CoV-2 in Caco-2
[7] = tested on: SARS-CoV-2; experiment: microbe, parasite or virus in culture; type: cell-based, SARS-CoV-2 (Lineage A, B.1); conditions: for EC50: vRNA (qPCR), read-out: EC50 against SARS-CoV-2 in HNECs; for antiviral activity in HNEC ALI cultures (in words): viral RNA copies in apical washes over three days
[8] = tested on: SARS-CoV-2; experiment: Time-of-addition (TOA) assay in HeLa-hACE2, dsRNA staining; type: cell-based; conditions: HeLa-hACE2, MOI 4, 2.5-5 µM compound, dsRNA readout at 8 hpi
[9] = tested on: SARS-CoV-2 pseudovirus (SARS2pp); experiment: microbe, parasite or virus in culture; type: cell-based; conditions: luciferase, 24 h, read-out: EC50, neutralization of SARS2pp entry in VeroE6
[10] = tested on: SARS-CoV-2 pseudovirus (SARS2pp); experiment: microbe, parasite or virus in culture; type: cell-based
[11] = molecular target: T1, cathepsin L (Homo sapiens, UniProt P07711); experiment: Enzymatic cathepsin L inhibition assay (Eurofins); type: biochemical
T1 construct: purchased Eurofins (contract assay)
T1 sequence (P07711 114-333): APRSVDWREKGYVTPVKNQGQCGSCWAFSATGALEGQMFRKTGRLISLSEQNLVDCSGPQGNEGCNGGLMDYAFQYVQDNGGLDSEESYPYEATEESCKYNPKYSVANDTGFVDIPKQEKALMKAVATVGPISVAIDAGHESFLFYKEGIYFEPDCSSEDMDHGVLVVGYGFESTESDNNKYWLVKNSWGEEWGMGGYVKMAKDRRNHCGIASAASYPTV

[12] = in vitro; conditions: human, Caco-2
[13] = Cytotoxicity in uninfected A549-hACE2 cells (ATPlite); conditions: human, A549-hACE2 cells
[14] = tested on: A549-hACE2 cells; experiment: as above; conditions: for CC50: read-out: CC50 in A549-hACE2, Toxicity (ATPlite), uninfected cells
[15] = tested on: SARS-CoV-2; experiment: SARS-CoV-2 antiviral assay in VeroE6-eGFP cells (CPE reduction, GFP); conditions: for EC50: MOI 0.001, 96 h
[16] = tested on: HeLa-hACE2 cells; experiment: Immunofluorescence-based antiviral assay with LysoTracker dye in HeLa-hACE2; conditions: for LysoTracker signal intensity (in words): HeLa-hACE2, acidic organelle accumulation
[17] = in vitro; conditions: African green monkey
[18] = tested on: VeroE6-eGFP cells
[19] = tested on: VeroE6 cells
[20] = in vitro; conditions: African green monkey; remark: listed apart in the source
[21] = tested on: SARS-CoV-2
[22] = A549-hACE2, SARS-CoV-2 MOI 0.1, RT-qPCR at 48 hpi
[23] = Severe acute respiratory syndrome coronavirus 2, A549-hACE2, SARS-CoV-2 MOI 0.1, RT-qPCR at 48 hpi
[24] = Severe acute respiratory syndrome coronavirus 2, 24 h
[25] = Severe acute respiratory syndrome coronavirus
[26] = Severe acute respiratory syndrome-related coronavirus, Vero C1008
[27] = Severe acute respiratory syndrome-related coronavirus, VeroE6/TMPRSS2, SARS2pp, mean ± SD, unit inferred, [µM] only in axis labels, read-out: VeroE6 TMPRSS2: EC50 (Figure 6)
[28] = Severe acute respiratory syndrome coronavirus 2, 96 h, read-out: EC50 against SARS-CoV-2 in VeroE6-eGFP, CPE reduction (GFP)
[29] = read-out: EC50 against SARS-CoV-2 in VeroE6-eGFP, CPE reduction (GFP)

SMILES: C[C@H](NC(=O)[C@H](Cc1ccc(O)cc1)NC(=O)OCc1ccccc1)C(=O)C=[N+]=[N-]
- reduction of SARS-CoV-2 RNA in the supernatant [1]: ~ 4 log and 4 log
- EC50 [1, 22]: 321 nM
- EC50 [1, 23]: 320 nM
- EC50 ([2]; 24 h): 50 ± 3 nM
- EC50 [2, 24]: 46 nM
- EC50 ([3]; 24 h): 10 ± 1 nM
- EC50 [3, 24]: 6 nM
- EC50 [4, 25]: 50 ± 16 nM
- EC50 [5]: 70 ± 10 nM
- EC50 ([5]; Human coronavirus 229E, 24 h): 69 nM
- EC50 ([6]; Severe acute respiratory syndrome coronavirus 2, Caco-2, CPE reduction (manual scoring), MOI 0.01, 48 h): > 50000 nM
- EC50 ([7]; Severe acute respiratory syndrome coronavirus 2): > 20000 nM
- antiviral activity in HNEC ALI cultures (in words) ([7]; compound at 20 µM): does not inhibit SARS-CoV-2 infection; also recorded: did not show antiviral activity
- antiviral activity in differentiated HNECs (in words) ([7]; concentration not given): did not show antiviral activity
- time of addition from which antiviral activity was lost [8]: ≥ 2 h post virus infection
- EC50 [9, 26]: 130 nM
- activity against SARS2pp in VeroE6 TMPRSS2 (in words) [10]: not active at all
- EC50 [10, 27]: > 30 µM
- EC50 ([11]; enzymatic assay, substrate Z-Phe-Arg AMC, one experiment): < 50 nM
- CC50 [12]: > 50 µM
- CC50 [13]: > 25 µM
- cytotoxicity (in words) ([14]; uninfected A549-hACE2, ATPlite): did not show cytotoxicity
- selectivity index (SI), VeroE6-eGFP SARS-CoV-2 ([15]; CC50/EC50 in VeroE6-eGFP): > 15
- EC50 [15, 28]: 1330 ± 490 nM
- LysoTracker signal intensity (in words) [16]: did not significantly increase the intensity of the LysoTracker signal

SMILES: CN(C)C(=O)COC(=O)Cc1ccc(OC(=O)c2ccc(NC(=N)N)cc2)cc1 [Camostat mesylate, camostat mesylate]
- EC50 [9, 26]: > 30000 nM
- EC50 [10, 27]: 18 ± 5.52 µM
- EC50 ([10]; Severe acute respiratory syndrome-related coronavirus, VeroE6/TMPRSS2, luciferase, 24 h, read-out: EC50, neutralization of SARS2pp entry in VeroE6 TMPRSS2): ~18 µM
- CC50 [17]: > 30 µM

SMILES: CN1CCN(C(=O)N[C@@H](Cc2ccccc2)C(=O)N[C@H](/C=C/S(=O)(=O)c2ccccc2)CCc2ccccc2)CC1 [K777]
- EC50 ([2]; 24 h): 4 ± 0.2 nM
- EC50 ([3]; 24 h): 0.6 ± 0.05 nM
- EC50 ([4]; HCI (spike stain), MOI 0.1): 3 ± 0.5 nM
- EC50 [5]: 2 ± 0.4 nM
- EC50 [9]: 23 nM
- EC50 ([10]; luciferase, 24 h, read-out: EC50, neutralization of SARS2pp entry in VeroE6 TMPRSS2): 18.6 µM
- CC50 [18]: ~50 µM
- CC50 [19]: > 30 µM
- CC50 [14]: > 0.05 µM
- EC50 [15, 29]: 540 ± 140 nM
- concentration at which the LysoTracker signal is significantly increased ([16]; HeLa-hACE2, adjusted p-value < 0.05 vs virus control): ≥ 2.2 µM

SMILES: CC(C)C(=O)OC[C@H]1O[C@@H](n2ccc(NO)nc2=O)[C@H](O)[C@@H]1O [Molnu-Piravir, molnupiravir]
- EC50 [3, 24]: 1010 ± 110 nM
- EC50 ([5]; Human coronavirus 229E, 24 h): 1320 ± 180 nM
- CC50 [20]: > 100 µM
- CC50 [13]: > 50 µM

SMILES: COc1cccc2[nH]c(C(=O)N[C@@H](CC(C)C)C(=O)N[C@@H](C[C@@H]3CCNC3=O)C(=O)CO)cc12 [PF-00835231]
- reduction of SARS-CoV-2 RNA in the supernatant [1]: ~ 4.8 log
- EC50 [1, 22]: 530 nM and 532 nM
- EC50 ([2]; 24 h): 180 ± 8 nM
- EC50 ([3]; 24 h): 160 ± 20 nM
- EC50 ([4]; HCI (spike stain), MOI 0.1): 550 ± 40 nM
- EC50 [5]: 470 ± 40 nM
- time of addition until which inhibition of dsRNA formation was sustained [8]: ~ 4 hpi
- CC50 [18]: > 20 µM
- CC50 [14]: > 12.5 µM
- EC50 [15, 29]: > 50000 nM
- LysoTracker signal intensity (in words) [16]: neither one of the compounds increased the intensity of the LysoTracker signal

SMILES: CC(C)(C)[C@H](NC(=O)C(F)(F)F)C(=O)N1C[C@H]2[C@@H]([C@H]1C(=O)N[C@H](C#N)C[C@@H]1CCNC1=O)C2(C)C [PF-07321332, nirmatrelvir]
- antiviral activity in HNEC ALI cultures (in words) ([7]; compound at 2.5 µM): did
- EC50 [7]: 180 ± 140 nM
- time of addition until which inhibition of dsRNA formation was sustained [8]: ~ 4 hpi

SMILES: CCC(CC)COC(=O)[C@H](C)N[P@](=O)(OC[C@H]1O[C@@](C#N)(c2ccc3c(N)ncnn23)[C@H](O)[C@@H]1O)Oc1ccccc1 [Remdesivir, remdesivir]
- reduction of SARS-CoV-2 RNA in the supernatant [1]: ~ 4.5 log
- EC50 [1, 22]: 411 nM
- EC50 [1, 23]: 410 nM
- EC50 [2, 24]: 180 ± 10 nM
- EC50 [3, 24]: 110 ± 10 nM
- EC50 [4, 25]: 330 ± 20 nM
- EC50 ([5]; Human coronavirus 229E, 24 h): 110 ± 9 nM
- EC50 ([6]; Severe acute respiratory syndrome coronavirus 2, Caco-2, 48 h): 770 ± 260 nM
- time of addition until which inhibition of dsRNA formation was sustained [8]: ~ 4 hpi
- EC50 [21]: 1420 ± 150 nM
- CC50 [20]: > 100 µM
- CC50 [13]: > 25 µM
- EC50 [15, 28]: 1340 nM
- LysoTracker signal intensity (in words) [16]: neither one of the compounds increased the intensity of the LysoTracker signal

SMILES: CC(=O)N[C@@H](CC(C)C)C(=O)N[C@@H](CC(C)C)C(=O)N[C@H](C=O)CCCNC(=N)N [leupeptin]
- cathepsin L activity (in words) ([11]; positive control): blocked cathepsin L activity

Source: paper PMC10055926
